Measurements published in ChEMBL document CHEMBL5032531, “Hypocholesterolemic Efficacy of Secoisolariciresinol Diglucoside and Its Polymer in Rat” (J Nat Prod, 2021).

Tests used:
[1] = tested on: Rattus norvegicus; assay: Hypocholesterolemic activity in Wistar rat model with high cholesterol diet assessed as reduction in liver lobular inflammation at 6 mg/kg, po qd measured after 23 days by H and E staining assay; assay type: functional; conditions: time 23 day
[2] = tested on: Rattus norvegicus; assay: Hypocholesterolemic activity in Wistar rat model with high cholesterol diet assessed as reduction of steatosis at 6 mg/kg, po qd measured after 23 days by H and E staining assay; assay type: functional; conditions: time 23 day
[3] = tested on: Rattus norvegicus; assay: Effect on body weight in Wistar rat model with high cholesterol diet at 6 mg/kg, po qd measured after 23 days; assay type: ADME, organism-based; conditions: in vivo, 552 h, time 23 day
[4] = tested on: Rattus norvegicus; assay: Effect on body weight gain in Wistar rat model with high cholesterol diet at 6 mg/kg, po qd measured after 23 days relative to control; assay type: ADME, organism-based; conditions: in vivo, 552 h, time 23 day
[5] = tested on: Rattus norvegicus; assay: Effect on liver weight in Wistar rat model with high cholesterol diet at 6 mg/kg, po qd measured after 23 days; assay type: ADME, organism-based; conditions: in vivo, 552 h, time 23 day
[6] = tested on: Rattus norvegicus; assay: Effect on Wistar rat model with high cholesterol diet assessed as ratio of liver weight to body weight at 6 mg/kg, po qd measured after 23 days; assay type: ADME, organism-based; conditions: in vivo, 552 h, time 23 day
[7] = tested on: Rattus norvegicus; assay: Hypocholesterolemic activity in Wistar rat model with high cholesterol diet assessed as amount of Triglycerides in serum at 6 mg/kg, po qd measured after 23 days by microplate reader assay relative to control; assay type: functional; conditions: time 23 day
[8] = tested on: Rattus norvegicus; assay: Hypocholesterolemic activity in Wistar rat model with high cholesterol diet assessed as amount of Total cholesterol in serum at 6 mg/kg, po qd measured after 23 days by microplate reader assay relative to control; assay type: functional; conditions: time 23 day
[9] = tested on: Rattus norvegicus; assay: Hypocholesterolemic activity in Wistar rat model with high cholesterol diet assessed as amount of LDL-C in serum at 6 mg/kg, po qd measured after 23 days by microplate reader assay relative to control; assay type: functional; conditions: time 23 day
[10] = tested on: Rattus norvegicus; assay: Hypocholesterolemic activity in Wistar rat model with high cholesterol diet assessed as amount of HDL-C in serum at 6 mg/kg, po qd measured after 23 days by microplate reader assay relative to control; assay type: functional; conditions: time 23 day
[11] = tested on: Rattus norvegicus; assay: Hypocholesterolemic activity in Wistar rat model with high cholesterol diet assessed as reduction in liver NAFLD activity score at 6 mg/kg, po qd measured after 23 days by H and E staining assay; assay type: functional; conditions: time 23 day
[12] = tested on: Rattus norvegicus; assay: Hypocholesterolemic activity in Wistar rat model with high cholesterol diet assessed as reduction of steatosis at 6 mg/kg, po qd measured after 23 days by H and E staining assay relative to control; assay type: functional; design: scale not given: the % may be the effect or the level left; conditions: time 23 day
[13] = tested on: Rattus norvegicus; assay: Hypocholesterolemic activity in Wistar rat model with high cholesterol diet assessed as liver NAFLD activity score at 6 mg/kg, po qd measured after 23 days by H and E staining assay relative to control; assay type: functional; conditions: time 23 day

What does the source list for COc1cc(C[C@H](CO[C@@H]2O[C@H](CO)[C@@H](O)[C@H](O)[C@H]2O)[C@@H](CO[C@@H]2O[C@H](CO)[C@@H](O)[C@H](O)[C@H]2O)Cc2ccc(O)c(OC)c2)ccc1O [(+)-SECOISOLARICIRESINOLDIGLUCOSIDE]?
Activity [1]: 1; Activity [2]: 1.4; Activity [3]: 330 g; Activity [4]: 32%; Activity [5]: 10.4 g; Activity [6]: 31.5 g/kg; Activity [7]: 15%; Activity [8]: 10%; Activity [9]: 14%; Activity [10]: 24%; Activity [11]: 2.4; Activity [12]: 22.2%; Activity [13]: 14.3%
